{
  "source": "patent US11160788B2",
  "about": "“Caspase-1 inhibition and uses thereof for prevention and treatment of neurological conditions” (priority 2016, dated 2021)",
  "key": {"[1]": {"test_system": "APP^WT-transfected human primary neurons", "assay": "Neuritic beading in APPWT-transfected human primary neurons", "assay_type": "cell-based", "experimental": "(§1) FIG. 13: VX-765 protects CNS primary human neurons (HPN) against APP- or serum deprivation-mediated neuritic beading. (a) MTT assay with increasing dose of VX-765. (b) Fluorescent micrographs showing homogeneous distribution of EGFP in normal neurons and neuritic beading in APP-transfected neurons. (c) Percentage beading in APP-transfected or serum-deprived neurons treated 1 h before and continuously with stressor (Pre-treatment) or 48 h after stressor (post-beading treatment) with 25 or 50 μM VX-765 or with 5 μM Z-YVAD-fmk Casp1 peptide inhibitor. […] (d-e) HPN secreted or cellular Aβ42/total Aβ38+40+42 (d) (F(3,4)=12.73, p=0.0163, ANOVA, Dunnett's post-hoc compared to Serum+DMSO, *p<0.05), and (e) levels of secreted II-1β, IFN-γ, TNF-α, and II-6 from untreated (+S), serum deprived (−S), or serum-deprived human neurons treated with 25 or 50 μM VX-765.\nEGFP-labeled human primary neurons were either APP^WT transfected or serum deprived. Two treatment strategies were employed to determine VX-765's effects on neuronal degeneration: our Pre-Treatment strategy looked at whether VX-765 could block neuronal degeneration when administered 1 hr prior to APP^WT transfection or serum deprivation, while our Reversal Treatment strategy looked at whether VX-765 could reverse degenerative effects when administered 48 hrs after APP^WT transfection or serum deprivation. Neurons displaying beaded morphology were counted with live imaging and measured as a percentage of the total number of eGFP+ neurons from 24-72 hrs after treatment. The irreversible caspase-1 inhibitor YVAD-fmk was used as positive control in our experiments. Results were obtained from averaging counts for at least 100 eGFP+ neurons per experiment in three independent neuron preparations."}, "J20 mice": {"test_system": "J20 mice", "assay": "NOR, preventive treatment of pre-symptomatic J20 mice", "assay_type": "in vivo, mouse", "experimental": "FIG. 22: Novel object recognition behavioral assay to assess episodic memory in J20 mice. Mice were treated with vehicle (WT and J20) or 50 mg/kg VX-765 (J20) at 2 months of age for 1 month (3 injections per week×4 weeks=12 injections). (a) Schematic representation of the manner in which the studies were carried out. (b) Discrimination index indicates the number of touches of the novel object minus the number of touches of the familiar object divided by the number of total touches for both objects. Two-way ANOVA (F(2,240)=75.62, p<0.0001) with Dunnett's compared to the J20+vehicle. * p<0.05, **** p<0.0001 (c) % mice impaired in NOR in each group of mice tested at the different time points.\nStudies are done on 8 (pre-symptomatic) week old J20 and littermate WT controls injected with 50 mg/Kg VX-765 or vehicle. The 8 week old mice are injected for 4 weeks (3 injections per week) and monitored for memory deficits at 16 weeks of age and every 4 weeks thereafter until the mice reach 8 months of age. VX-765 delays the onset of cognitive deficits by at least 5 months in the J20 mouse.\nTo determine if VX-765 can delay the appearance of AD-like cognitive deficits and pathology in the J20 mice, J20 mice were injected 3 times per week for 4 weeks starting at 2 months of age. We started NOR tests at 4 months of age, after 1 month without drug, and retested every month thereafter until 8 months of age (FIG. 3). […] At 8 months of age, only 1 of 3 mice have NOR deficit resulting in an averaged normal behavior. Since we sacrificed 2 mice per group at 4, 5, and 6 months and 3 mice per group at 7 and 8 months, note that the results of the older groups need more experimental data for solid conclusions.\nWe directly tested whether pre-symptomatic inhibition of inflammation in a mouse genetic model of Alzheimer disease can stem the progression of memory and behavioral deficits, and Alzheimer disease-like pathology. The J20 amyloid precursor protein Swedish/Indiana mutant mouse was treated at 2 months of age for a one month period with 50 mg/Kg Caspase-1 inhibitor VX-765 (FIG. 22a)."}, "[2]": {"test_system": "serum-deprived human neurons", "assay": "Aβ42/total Aβ and cytokine levels of serum-deprived human neurons", "assay_type": "cell-based", "experimental": "as §1"}},
  "data": [
    {"smiles": "CCO[C@@H]1OC(=O)C[C@@H]1NC(=O)[C@@H]1CCCN1C(=O)[C@@H](NC(=O)c1ccc(N)c(Cl)c1)C(C)(C)C", "note": "[VX-765, (S)-1-((S)-2-{[1-(4-amino-3-chloro-phenyl)-methanoyl]-amino}-3,3-dimethyl-butanoyl)-pyrrolidine-2-carboxylic acid ((2R,3S)-2-ethoxy-5-oxo-tetrahydro-furan-3-yl)-amide]", "values": [
      {"measurement": "neuritic beading", "setting": "[1]; pre-treatment 1 h before and continued, VX-765 25 and 50 μM, Z-YVAD-fmk 5 μM, 48 and 72 h", "value": "prevented neuritic beading"},
      {"measurement": "reduction in neuritic beading", "setting": "[1]; pre-treatment 1 hr prior, 48 hrs and 72 hrs post transfection, vs DMSO", "value": 40, "unit": "%"},
      {"measurement": "delay of the onset of cognitive deficits", "setting": "J20 mice; 50 mg/Kg, 3 injections per week for 4 weeks from 8 weeks of age", "value": "at least 5 months"},
      {"measurement": "NOR performance", "setting": "J20 mice; 4, 5 and 6 months of age (1, 2, 3 month washout)", "value": "perform normally on NOR"},
      {"measurement": "mice that developed NOR deficits", "setting": "J20 mice; 7 months of age (4 month washout)", "value": "3 out of 6"},
      {"measurement": "mice with NOR deficit", "setting": "J20 mice; 8 months of age", "value": "1 of 3"},
      {"measurement": "NOR discrimination index", "setting": "J20 mice; after 16 and 20 week washout", "value": "lower performance although they are still performing better than vehicle-treated J20 mice"},
      {"measurement": "NOR discrimination index", "setting": "J20 mice; average, each washout time point (4 to 20 weeks)", "value": "perform like the WT mice"},
      {"measurement": "percentage of mice impaired in NOR", "setting": "J20 mice; each washout time point", "value": "does not differ significantly from vehicle-treated WT mice"},
      {"measurement": "secreted and cellular Aβ42/total Aβ levels", "setting": "[2]; 25 μM", "value": "reduced secreted, but not cellular"},
      {"measurement": "secreted and cellular Aβ42/total Aβ levels", "setting": "[2]; 50 μM", "value": "reduced secreted and cellular"},
      {"measurement": "levels of II-1β, IFN-γ, TNF-α, and II-6", "setting": "[2]; 25 and 50 μM, trend, not statistically significant", "value": "reduced at both concentrations"}
    ]}
  ]
}
